# Reference: patent publication US20230126204A1, “[1,3]DIAZINO[5,4-d]PYRIMIDINES AS HER2 INHIBITORS” (Boehringer Ingelheim International GmbH, priority 2020, published 2023)
# Tests used:
# Format in all cases: cell-based
# [1] = test system: EGFR WT dependent A431 cells; assay: Tumor cell proliferation assay A431 (EGFR WT dependent); conditions: Homo sapiens, A-431; 72 h, CellTiter-Glo; read-out: GI50 A431 EGFR wt amp.
# Experimental: (§1) For proliferation assays, NCI-H2170 (HER2 wild type), NCI-H2170 HER2 YVMA and EGFR WT dependent A431 cells were used. NCI-H2170 HER2 YVMA or NCI-H2170 cells were seeded into 96-well plates at 750 cells/60 μL in growth media (RPMI ATCC+10% FBS, +Penicillin/Streptomycin). […] Compounds were added by using a HP D3000 Digital Dispenser one day after plating the cells. All treatments were performed in technical triplicates. Treated cells were incubated for 72 h at 37° C. with 5% CO2. CellTiter-Glo® Luminescent Cell Viability Assay (Promega) was performed and chemoluminescence was measured by using the multilabel Plate Reader VICTOR X4. The raw data were imported into and analyzed with the Boehringer Ingelheim proprietary software MegaLab (curve fitting based on the program PRISM, GraphPad Inc.).
# [2] = test system: NCI-H2170 (HER2 wild type) cells; assay: Tumor cell proliferation assay NCI-H2170 (HER2 wild type); conditions: Homo sapiens, 72 h, CellTiter-Glo, read-out: GI50 NCI H-2170 HER2 wt amp.
# Experimental: as §1
# Ba/F3 cells EGFR WT = assay: Ba/F3 proliferation assay EGFR WT (EGF dependent); conditions: Mus musculus, BaF3, EGF instead of IL-3, 72 h, CellTiter-Glo, read-out: GI50 BAF3 EGF dep.
# Experimental: (§2) Ba/F3 cell model generation and proliferation assays
# (§3) Plasmids containing HER2 mutants and EGFR WT were obtained from GeneScript. To generate EGFR/HER2-dependent Ba/F3 models, Ba/F3 cells were transduced with retroviruses containing vectors that harbor EGFR WT, HER2 WT or HER2 mutants (YVMA). Platinum-E cells (Cell Biolabs) were used for retrovirus packaging. Retrovirus was added to Ba/F3 cells. To ensure infection, 4 μg/mL polybrene was added and cells were spinfected. Infection efficiency was confirmed by measuring GFP-positive cells using a cell analyzer. Cells with an infection efficiency of 10% to 20% were further cultivated and puromycin selection with 1 μg/mL was initiated. As a control, parental Ba/F3 cells were used to assess the selection status. Selection was considered successful when parental Ba/F3 cells cultures died. To evaluate the transforming potential of HER2 mutations, the growth medium was no longer supplemented with IL-3. Ba/F3 cells harboring the empty vector were used as a control. A switch from IL-3 to EGF was performed for Ba/F3 cells with the EGFR WT known for its dependency on EGF ligand. Approximately ten days before conducting the experiments, puromycin was left out. For proliferation assays (data in table 12 and 14), Ba/F3 cells were seeded into 96-well plates at 5×10^3 cells/100 μL in growth media. Compounds were added by using a HP D3000 Digital Dispenser. All treatments were performed in technical triplicates. Treated cells were incubated for 72 h at 37° C. with 5% CO2. CellTiter-Glo® Luminescent Cell Viability Assay (Promega) was performed and chemoluminescence was measured by using the multilabel Plate Reader VICTOR X4. The raw data were imported into and analyzed with the Boehringer Ingelheim proprietary software MegaLab (curve fitting based on the program PRISM, GraphPad Inc.).
# Ba/F3 cells HER2 WT = assay: Ba/F3 proliferation assay HER2 WT; conditions: Mus musculus, BaF3; 72 h, CellTiter-Glo
# Experimental: as §2, §3
# [3] = test system: Ba/F3 cells HER2 mutants (YVMA); assay: Ba/F3 proliferation assay HER2 YVMA; conditions: Mus musculus, BaF3; 72 h, CellTiter-Glo
# Experimental: as §2, §3
# HER2 YVMA = target: T1, HER2 YVMA (Homo sapiens, UniProt P04626, INS775YVMA); assay: pHER2 (ERBB2) YVMA assay (AlphaScreen Surefire, HEK cells); conditions: HEK cells expressing HER2 YVMA, phosphorylation at Tyr1221/1222, 4 h
# T1 construct: expressed in transfected cells; host or cells: human HEK cells, retroviral transduction, puromycin selection, doxycycline-inducible expression
# Experimental: (§4) For the assay, HEK HER2 YVMA cells were seeded in MEM medium with 10% FBS. 4 hours prior to compound addition, HER2 YVMA expression was induced using 1 μg/ml Doxycycline. […] Subsequently, 60.000 cells/well in 60 μL were added. Cells were incubated with compounds for 4 h at 37° C. […] The mixture was incubated at a temperature of 20-25° C. with shaking (700 rpm) for 20 min. After centrifugation, 4 μL of the lysate were transferred to Proxiplates. […] Plates were shaken for 1 min (1400 rpm) and incubated for 2 h at a temperature of 20-25° C. in the dark.
# The results of the assay are provided as IC50 values.
# EGFR wild type (WT) = target: T2, EGFR wild type (WT) (Homo sapiens, UniProt P00533); assay: pEGFR assay (AlphaScreen Surefire, HEK cells); conditions: HEK cells expressing EGFR WT, phosphorylation at Tyr1068, 4 h
# T2 construct: expressed in transfected cells; host or cells: human HEK cells (ATCC CRL-1573), retroviral transduction, puromycin selection
# Experimental: This assay quantifies the phosphorylation of EGFR at Tyr1068 and was used to measure the inhibitory effect of compounds on the transgenic EGFR wild type (WT) protein expressed in HEK cells.
# as §4, with “Transduced cells were selected using puromycin. p-EGFR Tyr1068 was determined using the AlphaScreen Surefire pEGF Receptor (Tyr1068) Assay (PerkinElmer, TGRERS). For” for “For”, “EGFR WT” for “HER2 YVMA”, “FBS.” for “FBS. 4 hours prior to compound addition, HER2 YVMA expression was induced using 1 μg/ml Doxycycline.”
# This cellular phospho-EGFR (pEGFR) compound dose-response assay quantifies the phosphorylation of EGFR at Tyr1068 in HEK cells expressing EGFR WT. The results of the assay are provided as IC50 values.
# [4] = test system: NCI-H2170 HER2 YVMA cells; assay: Tumor cell proliferation assay NCI-H2170 HER2 YVMA; conditions: Homo sapiens, 72 h, CellTiter-Glo, read-out: GI50 NCI H-2170 HER2 YVMA
# Source text: HER2 YVMA tumor cell line model generation and proliferation assays
# Homology-directed genome engineering was employed to insert a 12 nucleotide sequence encoding YVMA into Exon 20 of the genomic HER2 locus in NCI-H2170 cells. […] The DNA template containing the HER2 exon 20 YVMA insertion variant was obtained from GenScript. PCR followed by Sanger sequencing was used to confirm the presence of the 12-nucleotide insertion in HER2 Exon 20 resulting in the YVMA amino acid duplication.
# as §1
# T2 sequence (P00533 25-1210): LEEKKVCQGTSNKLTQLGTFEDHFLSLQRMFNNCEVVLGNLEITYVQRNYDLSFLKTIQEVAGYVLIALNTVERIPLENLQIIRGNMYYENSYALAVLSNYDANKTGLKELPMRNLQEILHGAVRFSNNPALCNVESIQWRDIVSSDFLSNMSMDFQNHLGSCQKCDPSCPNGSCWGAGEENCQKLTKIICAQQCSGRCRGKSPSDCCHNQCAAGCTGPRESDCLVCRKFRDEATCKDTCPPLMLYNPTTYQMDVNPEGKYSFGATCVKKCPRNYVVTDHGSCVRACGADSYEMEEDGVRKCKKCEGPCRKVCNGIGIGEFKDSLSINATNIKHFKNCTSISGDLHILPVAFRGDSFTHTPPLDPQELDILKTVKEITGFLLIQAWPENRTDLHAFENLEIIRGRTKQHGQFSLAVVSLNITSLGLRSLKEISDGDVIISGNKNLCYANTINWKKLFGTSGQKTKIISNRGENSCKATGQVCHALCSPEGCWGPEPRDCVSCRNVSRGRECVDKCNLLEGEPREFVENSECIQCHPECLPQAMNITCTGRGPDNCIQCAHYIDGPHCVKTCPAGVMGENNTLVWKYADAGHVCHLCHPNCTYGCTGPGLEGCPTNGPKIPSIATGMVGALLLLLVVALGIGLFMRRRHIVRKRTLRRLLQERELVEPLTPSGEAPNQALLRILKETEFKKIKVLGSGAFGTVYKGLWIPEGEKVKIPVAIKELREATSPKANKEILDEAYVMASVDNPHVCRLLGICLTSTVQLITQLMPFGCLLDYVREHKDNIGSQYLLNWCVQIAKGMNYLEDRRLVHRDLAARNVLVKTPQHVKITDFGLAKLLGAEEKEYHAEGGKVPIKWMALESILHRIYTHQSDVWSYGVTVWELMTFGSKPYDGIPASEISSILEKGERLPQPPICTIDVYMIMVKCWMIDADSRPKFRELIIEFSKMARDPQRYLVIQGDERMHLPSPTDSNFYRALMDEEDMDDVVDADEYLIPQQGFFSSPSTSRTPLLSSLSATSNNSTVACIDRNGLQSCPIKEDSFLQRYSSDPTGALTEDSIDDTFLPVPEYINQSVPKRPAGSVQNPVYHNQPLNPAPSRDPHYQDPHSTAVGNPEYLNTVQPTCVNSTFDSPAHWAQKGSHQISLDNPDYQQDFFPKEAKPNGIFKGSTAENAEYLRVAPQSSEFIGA
# T1 sequence (P04626 with tags, fused parts or gaps INS775YVMA): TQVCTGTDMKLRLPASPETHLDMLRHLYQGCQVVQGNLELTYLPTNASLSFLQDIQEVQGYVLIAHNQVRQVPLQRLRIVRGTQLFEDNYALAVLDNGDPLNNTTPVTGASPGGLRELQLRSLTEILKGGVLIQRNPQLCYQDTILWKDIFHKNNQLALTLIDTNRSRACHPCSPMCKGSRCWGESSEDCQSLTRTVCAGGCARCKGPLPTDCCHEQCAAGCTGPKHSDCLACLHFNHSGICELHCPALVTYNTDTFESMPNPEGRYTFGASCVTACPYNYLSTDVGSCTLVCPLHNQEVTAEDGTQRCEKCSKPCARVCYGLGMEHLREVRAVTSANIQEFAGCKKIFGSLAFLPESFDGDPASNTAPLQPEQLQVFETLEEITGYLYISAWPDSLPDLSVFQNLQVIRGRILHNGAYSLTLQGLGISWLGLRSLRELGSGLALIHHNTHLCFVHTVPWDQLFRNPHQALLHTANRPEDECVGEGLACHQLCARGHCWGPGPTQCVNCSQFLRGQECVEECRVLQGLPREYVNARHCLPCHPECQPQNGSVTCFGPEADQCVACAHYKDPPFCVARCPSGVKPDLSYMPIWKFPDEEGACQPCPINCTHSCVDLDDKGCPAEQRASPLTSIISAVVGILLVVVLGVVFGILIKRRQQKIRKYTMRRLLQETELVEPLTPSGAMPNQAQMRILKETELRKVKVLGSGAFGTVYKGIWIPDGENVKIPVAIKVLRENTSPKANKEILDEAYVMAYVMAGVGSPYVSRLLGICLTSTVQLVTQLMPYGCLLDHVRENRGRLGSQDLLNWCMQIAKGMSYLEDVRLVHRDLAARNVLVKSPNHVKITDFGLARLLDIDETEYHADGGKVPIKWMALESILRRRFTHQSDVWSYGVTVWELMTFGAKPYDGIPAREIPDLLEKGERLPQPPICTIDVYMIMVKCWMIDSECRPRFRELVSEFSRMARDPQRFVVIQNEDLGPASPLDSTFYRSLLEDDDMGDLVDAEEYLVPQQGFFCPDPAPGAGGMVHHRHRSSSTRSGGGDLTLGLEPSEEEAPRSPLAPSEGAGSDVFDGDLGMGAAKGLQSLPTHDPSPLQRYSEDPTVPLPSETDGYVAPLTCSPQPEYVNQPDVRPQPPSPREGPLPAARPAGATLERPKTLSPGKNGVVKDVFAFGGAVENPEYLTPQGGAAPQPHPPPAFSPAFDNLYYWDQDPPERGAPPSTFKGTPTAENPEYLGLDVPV
smiles,measurement,setting,value
C=CC(=O)N1CCN(c2ncc3ncnc(Nc4cc(Cl)c(Oc5ccc6c(c5)ncn6C)c(Cl)c4)c3n2)CC1 [Compound I-7],GI50,[1],> 5 µM
same,GI50,[2],25 nM
same,GI50,Ba/F3 cells EGFR WT,1110 nM
same,GI50,Ba/F3 cells HER2 WT,6 nM
same,GI50,[3],37 nM
same,IC50,HER2 YVMA,30 nM
same,IC50,EGFR wild type (WT),996 nM
same,GI50,[4],118 nM
